Like-named read-outs stand apart in the source and are kept apart here.
Legend:
[1] = tested on: DU 145, hormone-independent human prostate carcinoma cells; test: Proliferation assay, DU145 (crystal violet); format: cell-based; conditions: DU145, 4 days, read-out: Inhibition of DU145 cell proliferation IC50
Protocol: (§1) Cultivated tumour cells (HeLa, human cervical tumour cells, ATCC CCL-2; NCI-H460, human non-small cell lung carcinoma cells, ATCC HTB-177; A2780, human ovarian carcinoma cells, ECACC #93112519; DU 145, hormone-independent human prostate carcinoma cells, ATCC HTB-81; HeLa-MaTu-ADR, multidrug-resistant human cervical carcinoma cells, EPO-GmbH Berlin; Caco-2, human colorectal carcinoma cells, ATCC HTB-37; B16F10, mouse melanoma cells, ATCC CRL-6475) were plated at a density of 5,000 cells/well (DU145, HeLa-MaTu-ADR), 3,000 cells/well (NCI-H460, HeLa), 2,500 cells/well (A2780), 1,500 cells/well (Caco-2), or 1,000 cells/well (B16F10) in a 96-well multititer plate in 200 μL of their respective growth medium supplemented 10% fetal calf serum. After 24 hours, the cells of one plate (zero-point plate) were stained with crystal violet (see below), while the medium of the other plates was replaced by fresh culture medium (200 μl), to which the test substances were added in various concentrations (0 μM, as well as in the range of 0.001-10 μM; the final concentration of the solvent dimethyl sulfoxide was 0.5%). The cells were incubated for 4 days in the presence of test substances. Cell proliferation was determined by staining the cells with crystal violet: the cells were fixed by adding 20 μl/measuring point of an 11% glutaric aldehyde solution for 15 minutes at room temperature. After three washing cycles of the fixed cells with water, the plates were dried at room temperature. The cells were stained by adding 100 μl/measuring point of a 0.1% crystal violet solution (pH 3.0). After three washing cycles of the stained cells with water, the plates were dried at room temperature. The dye was dissolved by adding 100 μl/measuring point of a 10% acetic acid solution. The extinction was determined by photometry at a wavelength of 595 nm. The change of cell number, in percent, was calculated by normalization of the measured values to the extinction values of the zero-point plate (=0%) and the extinction of the untreated (0 μm) cells (=100%). The IC50 values (inhibitory concentration at 50% of maximal effect) were determined by means of a 4 parameter fit. Non-adherent MOLM-13 human acute myeloid leukemia cells (DSMZ ACC 554) were seeded at a density of 5,000 cells/well in a 96-well multititer plate in 100 μL of growth medium supplemented 10% fetal calf serum. After 24 hours, cell viability of one plate (zero-point plate) was determined with the Cell Titre-Glo Luminescent Cell Viability Assay (Promega), while 50 μL of test compound containing medium was added to the wells of the other plates (final concentrations in the range of 0.001-10 μM and DMSO controls; the final concentration of the solvent dimethyl sulfoxide was 0.5%). Cell viability was assessed after 72-hour exposure with the Cell Titre-Glo Luminescent Cell Viability Assay (Promega).

[2] = tested on: HeLa, human cervical tumour cells; test: Proliferation assay, HeLa (crystal violet); format: cell-based; conditions: 4 days, read-out: Inhibition of HeLa cell proliferation IC50
Protocol: as §1

CDK2/CycE = target: T1, CDK2/CycE (Homo sapiens, UniProt P24941); test: CDK2/CycE high ATP kinase assay (TR-FRET, 2 mM ATP); format: biochemical; conditions: Method 2b
T1 construct: GST; purchased ProQinase GmbH (Freiburg, Germany); host or cells: insect cells (Sf9)
Protocol: 2b. CDK2/CycE High ATP Kinase Assay:
CDK2/CycE-inhibitory activity of compounds of the present invention at 2 mM adenosine-tri-phosphate (ATP) was quantified employing the CDK2/CycE TR-FRET (TR-FRET=Time Resolved Fluorescence Energy Transfer) assay as described in the following paragraphs.
Recombinant fusion proteins of GST and human CDK2 and of GST and human CycE, expressed in insect cells (Sf9) and purified by Glutathion-Sepharose affinity chromatography, were purchase from ProQinase GmbH (Freiburg, Germany). As substrate for the kinase reaction biotinylated peptide biotin-Ttds-[…] (C-terminus in amid form) was used which can be purchased e.g. form the company JERINI peptide technologies (Berlin, Germany).
For the assay 50 nl of a 100 fold concentrated solution of the test compound in DMSO was pipetted into a black low volume 384 well microtiter plate (Greiner Bio-One, Frickenhausen, Germany), 2 μl of a solution of CDK2/CycE in aqueous assay buffer [50 mM Tris/HCl pH 8.0, 10 mM MgCl2, 1.0 mM dithiothreitol, 0.1 mM sodium ortho-vanadate, 0.01% (v/v) Nonidet-P40 (Sigma)] were added and the mixture was incubated for 15 min at 22° C. to allow pre-binding of the test compounds to the enzyme before the start of the kinase reaction. Then the kinase reaction was started by the addition of 3 μl of a solution ATP (3.33 mM=>final conc. in the 5 μl assay volume is 2 mM) and substrate (1.25 μM=>final conc. in the 5 μl assay volume is 0.75 μM) in assay buffer and the resulting mixture was incubated for a reaction time of 25 min at 22° C. The concentration of CDK2/CycE was adjusted depending of the activity of the enzyme lot and was chosen appropriate to have the assay in the linear range, typical concentrations were in the range of 15 ng/ml. The reaction was stopped by the addition of 5 μl of a solution of TR-FRET detection reagents (0.2 μM streptavidine-XL665 [Cisbio Bioassays, Codolet, France] and 1 nM anti-RB(pSer807/pSer811)-antibody from BD Pharmingen [#558389] and 1.2 nM LANCE EU-W1024 labeled anti-mouse IgG antibody [Perkin-Elmer, product no. AD0077, as an alternative a Terbium-cryptate-labeled anti-mouse IgG antibody from Cisbio Bioassays can be used]) in an aqueous EDTA-solution (100 mM EDTA, 0.2% (w/v) bovine serum albumin in 100 mM HEPES/NaOH pH 7.0).
The resulting mixture was incubated 1 h at 22° C. to allow the formation of complex between the phosphorylated biotinylated peptide and the detection reagents. Subsequently the amount of phosphorylated substrate was evaluated by measurement of the resonance energy transfer from the Eu-chelate to the streptavidine-XL. Therefore, the fluorescence emissions at 620 nm and 665 nm after excitation at 350 nm were measured in a TR-FRET reader, e.g. a Rubystar (BMG Labtechnologies, Offenburg, Germany) or a Viewlux (Perkin-Elmer). The ratio of the emissions at 665 nm and at 622 nm was taken as the measure for the amount of phosphorylated substrate.

Row | SMILES | IC50 ([1]; Homo sapiens, DU-145, 96 h) [nM] | IC50 ([2]; Homo sapiens, 96 h) [nM] | IC50 (CDK2/CycE) [nM] | IC50 [1] [nM] | IC50 [2] [nM]
1 | CCNC(=O)N=S(C)(=O)Cc1ccnc(Nc2cc(-c3ccc(F)cc3OC)c(F)cn2)c1 (racemic) [Example 12, (rac)-1-Ethyl-3-{[(2-{[5-fluoro-4-(4-fluoro-2-methoxyphenyl)pyridin-2-yl]amino}pyridin-4-yl)methyl](methyl)oxido-λ^6-sulfanylidene}urea] | 77 | 34 | 3070 |  | 
2 | COc1cc(F)ccc1-c1cc(Nc2cc(CS(C)(=N)=O)c(Br)c(C)n2)ncc1F (racemic) [Example 5, (rac)-5-Bromo-N-[5-fluoro-4-(4-fluoro-2-methoxyphenyl)pyridin-2-yl]-6-methyl-4-[(S-methylsulfonimidoyl)methyl]pyridin-2-amine] | 110 | 93 | 1770 |  | 
3 | COc1cc(F)ccc1-c1cc(Nc2cc(CS(C)(=N)=O)cc(C)n2)ncc1F (single isomer, unassigned; (-)) [Example 33, (−)-5-Fluoro-4-(4-fluoro-2-methoxyphenyl)-N-{6-methyl-4-[(S-methylsulfonimidoyl)methyl]pyridin-2-yl}pyridin-2-amine] |  |  | 680 | 31 | 19
4 | COc1cc(F)ccc1-c1cc(Nc2cc(CS(C)(=N)=O)ccn2)ncc1F.Cl (single isomer, unassigned; enantiomer 2) [Example 14, 5-Fluoro-4-(4-fluoro-2-methoxyphenyl)-N-{4-[(S-methylsulfonimidoyl)methyl]pyridin-2-yl}pyridin-2-amine hydrochloride; enantiomer 2] |  |  | 3410 | 33 | 42
5 | CCOc1cc(F)ccc1-c1cc(Nc2cc(CS(C)(=O)=NC(=O)C(F)(F)F)cc(F)n2)ncc1F (racemic) [Example 27, (rac)-N-{[(2-{[4-(2-Ethoxy-4-fluoro-phenyl)-5-fluoropyridin-2-yl]amino}-6-fluoropyridin-4-yl)methyl]-(methyl)oxido-λ^6-sulfanylidene}-2,2,2-trifluoroacetamide] | 110 | 100 | ≥ 20000 |  | 
6 | COc1cc(F)ccc1-c1cc(Nc2cc(CS(C)(=O)=NC(=O)C(F)(F)F)cc(F)n2)ncc1F (racemic) [Example 18, (rac)-2,2,2-Trifluoro-N-{[(2-fluoro-6-{[5-fluoro-4-(4-fluoro-2-methoxyphenyl)pyridin-2-yl]amino}pyridin-4-yl)methyl](methyl)oxido-λ^6-sulfanylidene}acetamide] | 41 | 61 |  |  | 
7 | COc1cc(F)ccc1-c1cc(Nc2cc(CS(C)(=N)=O)cc(C(F)(F)F)n2)ncc1F (single isomer, unassigned; (+)) [Example 22, (+)-5-Fluoro-4-(4-fluoro-2-methoxyphenyl)-N-{4-[(S-methylsulfonimidoyl)methyl]-6-(trifluoromethyl)pyridin-2-yl}pyridin-2-amine] | 32 | 30 | 233 |  | 
8 | COc1cc(F)ccc1-c1cc(Nc2cc(CS(C)(=N)=O)cc(F)n2)ncc1F (single isomer, unassigned; (+)) [Example 19, (+)-5-Fluoro-4-(4-fluoro-2-methoxyphenyl)-N-{6-fluoro-4-[(S-methylsulfonimidoyl)methyl]pyridin-2-yl}pyridin-2-amine] | 58 |  | 1370 |  | 
9 | COc1cc(F)ccc1-c1cc(Nc2cc(CS(C)(=N)=O)cc(C(F)F)n2)ncc1F (racemic) [Example 31, (rac)-N-{6-(Difluoromethyl)-4-[(S-methylsulfonimidoyl)methyl]pyridin-2-yl}-5-fluoro-4-(4-fluoro-2-methoxyphenyl)pyridin-2-amine] |  | 8 | 229 |  | 
10 | COc1cc(F)ccc1-c1cc(Nc2cc(CS(=N)(=O)CCN)ccn2)ncc1F (racemic) [Example 9, (rac)-N-(4-{[S-(2-Aminoethyl)sulfonimidoyl]methyl}pyridin-2-yl)-5-fluoro-4-(4-fluoro-2-methoxyphenyl)pyridin-2-amine] |  | 410 | 4230 |  | 
